According to US20240310368A1, “DETECTION KIT FOR CATECHOLAMINES AND METABOLITES THEREOF IN PLASMA/URINE AND DETECTION METHOD THEREOF” (Calibra Scientific, Inc., priority 2023, published 2024):
Several values for one entry are separate records, joined by “and”; a condition that tells them apart may be missing. Equal entries are not always repeated. Values belong to the compound of their own block, whether it stands above or below them.

Key:
[1] = Acceleration test of plasma samples with stabilizers (30° C. for 1.5 days, against control plasma stored at −95° C. to −65° C.), LC-MS/MS Area/IS Area
Protocol: Samples were collected in EDTA-anticoagulant blood collection tubes and then rapidly subjected to […] centrifugation at 2-8° C. to separate plasma. 0.95 mL of the plasma was transferred into centrifuge tubes. After 50 μL of the stabilizer was added for uniform mixing, the plasma samples were stored by refrigeration or freezing.
• (1) 500 μL of plasma/urine samples to be tested were taken, and 50 μL of the internal standard solution and 500 μL of the buffer solution were sequentially added for vertex mixing to obtain diluted samples. • (2) The magnetic medium composite material suspension was subjected to full vortex treatment to reach a suspension state, and then subsequent operation was performed. • (3) Different reagents were added into wells of a preprocessing plate according to the follow operation: adding 200 μL of the magnetic medium composite material suspension in column 1, adding 500 μL of the balance solution in column 2, adding 850 μL of the diluted samples in column 3, adding 500 μL of the balance solution in column 4, adding 200 μL of a rinsing solution in column 5, and adding 100 μL of the elution solution in column 6. • (4) An extraction operation procedure was carried out, as shown in Table 5.
Each group of the plasma samples were stored at 30° C. for 1.5 days, and plasma without addition of any compounds stored at −95° C. to −65° C. was used as a control. […] The stabilizing effect of the single-component stabilizers on the plasma samples was investigated.
The stabilizers were mixed with plasma (the volume ratio of the stabilizers to plasma samples was 1:19), and high concentration plasma samples and low concentration plasma samples were prepared by the method provided in Example 1.
With plasma stored at −95° C. to −65° C. as a control, the above plasma samples were separately stored at 30° C. for 1.5 days to investigate the stability. […]

[2] = Stabilizing effect of accelerated stabilizers (37° C., 14 days) on plasma samples then accelerated at 30° C. for 1.5 days; type: physicochemical, human; conditions: for Relative deviation %: Accelerate vs Control; for concentration in plasma samples, Control / concentration in plasma samples, Accelerate: single replicates; for concentration in plasma samples, Accelerate: stabilizer accelerated 37° C. 14 days, plasma then accelerated at 30° C. for 1.5 days
Protocol: (§1) In the present example, the stabilizing effect of the stabilizers on plasma samples, standard products and quality control products after acceleration was further verified. The stabilizers were accelerated at 37° C. for 14 days (equivalent to 1 year at 2-8° C.), added into the plasma samples in proportions and then accelerated at 30° C. for 1.5 days (equivalent to 12 months at −30° C. to −15° C.). The stabilizers were accelerated at 37° C. for 14 days (equivalent to 1 year at 2-8° C.), added into the standard products and the quality control products in proportions and then accelerated at 30° C. for 2 days (equivalent to 18 months at −30° C. to −15° C.).

[3] = Stabilizing effect of accelerated stabilizers (37° C., 14 days) on standard products and quality control products then accelerated at 30° C. for 2 days; type: physicochemical; conditions: for Relative deviation %: 2 days at 30° C. vs Control; for concentration in standard products and quality control products, 2 days at 30° C. / concentration in standard products and quality control products, Control: single replicates
Protocol: Standard products of epinephrine, norepinephrine, dopamine, metanephrine, normetanephrine and 3-methoxytyramine were prepared into mixed solutions, and blank plasma containing a stabilizer was used as a matrix to prepare standard products and quality control products.
as §1

[4] = plasma at a high concentration level, plasma containing 0.5% of the acid, control plasma 0.624
[5] = plasma at a high concentration level, plasma containing 0.5% of the acid, control plasma 1.522
[6] = plasma at a high concentration level, plasma containing 0.5% of the acid, control plasma 2.27
[7] = plasma at a high concentration level, plasma containing 2.0% of the acid, control plasma 0.624
[8] = plasma at a high concentration level, plasma containing 2.0% of the acid, control plasma 1.522
[9] = plasma at a high concentration level, plasma containing 2.0% of the acid, control plasma 2.27
[10] = plasma at a low concentration level, plasma containing 0.5% of the acid, control plasma 0.079
[11] = plasma at a low concentration level, plasma containing 0.5% of the acid, control plasma 0.219
[12] = plasma at a low concentration level, plasma containing 0.5% of the acid, control plasma 0.233
[13] = plasma at a low concentration level, plasma containing 2.0% of the acid, control plasma 0.079
[14] = plasma at a low concentration level, plasma containing 2.0% of the acid, control plasma 0.219
[15] = plasma at a low concentration level, plasma containing 2.0% of the acid, control plasma 0.233
[16] = samples at a high concentration level
[17] = samples at a low concentration level

Ratio (Area/IS Area) E [1, 4]: 0
Ratio (Area/IS Area) NE [1, 5]: 0
Ratio (Area/IS Area) DA [1, 6]: 0
Ratio (Area/IS Area) E [1, 7]: 0
Ratio (Area/IS Area) NE [1, 8]: 0
Ratio (Area/IS Area) DA [1, 9]: 0
Ratio (Area/IS Area) E [1, 10]: 0
Ratio (Area/IS Area) NE [1, 11]: 0
Ratio (Area/IS Area) DA [1, 12]: 0
Ratio (Area/IS Area) E [1, 13]: 0
Ratio (Area/IS Area) NE [1, 14]: 0
Ratio (Area/IS Area) DA [1, 15]: 0
SMILES: CC(=O)O [acetic acid]

SMILES: CNCC(O)c1ccc(O)c(OC)c1 (stereo not shown) [MN]
Relative deviation % [2, 16]: −1.2%
concentration in plasma samples, Control [2, 16]: 0.41672 ng/mL and 0.40668 ng/mL and 0.40997 ng/mL
concentration in plasma samples, Accelerate [2, 16]: 0.39738 ng/mL and 0.41965 ng/mL and 0.40205 ng/mL
Relative deviation % [2, 17]: 1.9%
concentration in plasma samples, Control [2, 17]: 0.07592 ng/mL and 0.07977 ng/mL and 0.07321 ng/mL
concentration in plasma samples, Accelerate [2, 17]: 0.0778 ng/mL and 0.07674 ng/mL and 0.07872 ng/mL
Relative deviation % ([3]; High concentration level): 0.61%
average concentration, 2 days at 30° C. ([3]; High concentration level): 984.35 pg/mL
concentration in standard products and quality control products, 2 days at 30° C. ([3]; High concentration level): 1.00342 ng/mL and 0.93428 ng/mL and 1.01536 ng/mL
average concentration, Control ([3]; High concentration level): 978.42 pg/mL
concentration in standard products and quality control products, Control ([3]; High concentration level): 1.00662 ng/mL and 0.97242 ng/mL and 0.9562 ng/mL
Relative deviation % ([3]; Low concentration level): 2.69%
average concentration, 2 days at 30° C. ([3]; Low concentration level): 12.16 pg/mL
concentration in standard products and quality control products, 2 days at 30° C. ([3]; Low concentration level): 0.01233 ng/mL and 0.01302 ng/mL and 0.01113 ng/mL
average concentration, Control ([3]; Low concentration level): 11.84 pg/mL
concentration in standard products and quality control products, Control ([3]; Low concentration level): 0.01265 ng/mL and 0.01291 ng/mL and 0.00997 ng/mL
Relative deviation % ([3]; Medium concentration level): −1.18%
average concentration, 2 days at 30° C. ([3]; Medium concentration level): 198.93 pg/mL
concentration in standard products and quality control products, 2 days at 30° C. ([3]; Medium concentration level): 0.20299 ng/mL and 0.20812 ng/mL and 0.18568 ng/mL
average concentration, Control ([3]; Medium concentration level): 201.31 pg/mL
concentration in standard products and quality control products, Control ([3]; Medium concentration level): 0.21281 ng/mL and 0.1969 ng/mL and 0.19422 ng/mL

Ratio (Area/IS Area) E [1, 4]: 0
Ratio (Area/IS Area) NE [1, 5]: 0
Ratio (Area/IS Area) DA [1, 6]: 0
Ratio (Area/IS Area) E [1, 7]: 0
Ratio (Area/IS Area) NE [1, 8]: 0
Ratio (Area/IS Area) DA [1, 9]: 0
Ratio (Area/IS Area) E [1, 10]: 0
Ratio (Area/IS Area) NE [1, 11]: 0
Ratio (Area/IS Area) DA [1, 12]: 0
Ratio (Area/IS Area) E [1, 13]: 0
Ratio (Area/IS Area) NE [1, 14]: 0
Ratio (Area/IS Area) DA [1, 15]: 0
SMILES: O=P(O)(O)O [phosphoric acid]

SMILES: O=C(O)CN(CCN(CC(=O)O)CC(=O)O)CC(=O)O.[Na].[Na] [disodium EDTA, disodium ethylenediaminetetraacetic acid]
Ratio (Area/IS Area) E ([1]; plasma at a high concentration level, plasma containing 50 μg/mL of the component, control plasma 0.624): 0
Ratio (Area/IS Area) NE ([1]; plasma at a high concentration level, plasma containing 50 μg/mL of the component, control plasma 1.522): 0
Ratio (Area/IS Area) DA ([1]; plasma at a high concentration level, plasma containing 50 μg/mL of the component, control plasma 2.27): 0
Ratio (Area/IS Area) E ([1]; plasma at a high concentration level, plasma containing 200 μg/mL of the component, control plasma 0.624): 0
Ratio (Area/IS Area) NE ([1]; plasma at a high concentration level, plasma containing 200 μg/mL of the component, control plasma 1.522): 0
Ratio (Area/IS Area) DA ([1]; plasma at a high concentration level, plasma containing 200 μg/mL of the component, control plasma 2.27): 0
Ratio (Area/IS Area) E ([1]; plasma at a low concentration level, plasma containing 50 μg/mL of the component, control plasma 0.079): 0
Ratio (Area/IS Area) NE ([1]; plasma at a low concentration level, plasma containing 50 μg/mL of the component, control plasma 0.219): 0
Ratio (Area/IS Area) DA ([1]; plasma at a low concentration level, plasma containing 50 μg/mL of the component, control plasma 0.233): 0
Ratio (Area/IS Area) E ([1]; plasma at a low concentration level, plasma containing 200 μg/mL of the component, control plasma 0.079): 0
Ratio (Area/IS Area) NE ([1]; plasma at a low concentration level, plasma containing 200 μg/mL of the component, control plasma 0.219): 0
Ratio (Area/IS Area) DA ([1]; plasma at a low concentration level, plasma containing 200 μg/mL of the component, control plasma 0.233): 0
stabilizing effect on catecholamines in plasma ([1]; single components as stabilizers): no obvious stabilizing effect
